These results are taken from PubChem BioAssay AID2060906 (Molecular Pharmacology Branch, DTP, NCI, 2025).

The subject of this experiment is 485176-168-R4-J1-PDC complex spheroid growth. As to the kind of experiment: Anticancer human tumor 485176-168-R4-J1-PDC patient-derived pancreatic adenocarcinoma cell line growth inhibition [RAS]. The settings on record: for viability, T/C: stronger effect = lower value. In short, it runs like this: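 Agents were tested in combination matrices in half-log decrements from a top concentration at or near clinical Cmax (10 microM if undetermined). Targets were multi-cell spheroids of tumour lines plus HUVEC and MSC stromal cells.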
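Also: spheroids exposed to compounds for seven days before readout.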
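For viability, T/C in this document: luminescence viability expressed relative to DMSO vehicle wells set as 100%.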

On to `CC(C)NCC(C(=O)N1CCN(c2ncnc3c2C(C)CC3O)CC1)c1ccc(Cl)cc1` (centres undefined) + CCn1c(-c2cc(N3CCN(C)CC3)cnc2C(C)OC)c2c3cc(ccc31)-c1csc(n1)CC(NC(=O)C1CC1C)C(=O)N1CCCC(N1)C(=O)OCC(C)(C)C2, for which the IC50 runs as follows: (curve of first compound, second compound 0.000949 µM) 2330 nM; (curve of first compound, second compound 0.003 µM) 3710 nM; (curve of first compound, second compound 0.00949 µM) 1650 nM; (curve of first compound, second compound 0.03 µM) 847 nM; (curve of first compound, second compound 0.0949 µM) 721 nM; (curve of first compound, second compound 0.3 µM) 790 nM. Besides, the viability, T/C is 116% (second compound 0.000949 µM, first compound 0.0316 µM); 99.5% (second compound 0.000949 µM, first compound 0.1 µM); 78.7% (second compound 0.000949 µM, first compound 0.316 µM); 64.8% (second compound 0.000949 µM, first compound 1 µM); 43.6% (second compound 0.000949 µM, first compound 3.16 µM); 33% (second compound 0.000949 µM, first compound 10 µM). The viability, T/C is 82.2% (second compound 0.003 µM, first compound 0.0316 µM); 101% (second compound 0.003 µM, first compound 0.1 µM); 74.3% (second compound 0.003 µM, first compound 0.316 µM); 65% (second compound 0.003 µM, first compound 1 µM); 55.1% (second compound 0.003 µM, first compound 3.16 µM); 38.8% (second compound 0.003 µM, first compound 10 µM). The viability, T/C was 97.9% (second compound 0.00949 µM, first compound 0.0316 µM); 79.7% (second compound 0.00949 µM, first compound 0.1 µM); 82.4% (second compound 0.00949 µM, first compound 0.316 µM); 56.8% (second compound 0.00949 µM, first compound 1 µM); 38.7% (second compound 0.00949 µM, first compound 3.16 µM); 32.3% (second compound 0.00949 µM, first compound 10 µM). In addition, the viability, T/C is 94.7% (second compound 0.03 µM, first compound 0.0316 µM); 73.8% (second compound 0.03 µM, first compound 0.1 µM); 81.2% (second compound 0.03 µM, first compound 0.316 µM); 44.4% (second compound 0.03 µM, first compound 1 µM); 40.5% (second compound 0.03 µM, first compound 3.16 µM); 31.7% (second compound 0.03 µM, first compound 10 µM). Moreover, the viability, T/C (second compound 0.0949 µM, first compound 0.0316 µM) is 81.3%; the viability, T/C (second compound 0.0949 µM, first compound 0.1 µM) is 67.9%; the viability, T/C (second compound 0.0949 µM, first compound 0.316 µM) was 70.3%; the viability, T/C (second compound 0.0949 µM, first compound 1 µM) is 41.3%; the viability, T/C (second compound 0.0949 µM, first compound 3.16 µM) was 35.5%; the viability, T/C (second compound 0.0949 µM, first compound 10 µM) is 26.8%. The viability, T/C (second compound 0.3 µM, first compound 0.0316 µM) is 72.2%; the viability, T/C (second compound 0.3 µM, first compound 0.1 µM) is 72.1%; the viability, T/C (second compound 0.3 µM, first compound 0.316 µM) was 57.5%; the viability, T/C (second compound 0.3 µM, first compound 1 µM) was 46.4%; the viability, T/C (second compound 0.3 µM, first compound 3.16 µM) was 38.4%; the viability, T/C (second compound 0.3 µM, first compound 10 µM) was 26.8%.

In the case of `CCc1c2c(nc3ccc(O)cc13)-c1cc3c(c(=O)n1C2)COC(=O)[C@]3(O)CC`, the viability, T/C is, setting by setting: (compound 0.003 µM) 86.2% [middle of 4 runs]; (compound 0.00949 µM) 66% [middle of 4 runs]; (compound 0.03 µM) 36.5% [middle of 4 runs]; (compound 0.0949 µM) 14% [middle of 4 runs]; (compound 0.3 µM) 7.88% [middle of 4 runs]. Moreover, the IC50 (curve of compound) is 17.9 nM [middle of 4 runs].

Take `CCc1c2c(nc3ccc(O)cc13)-c1cc3c(c(=O)n1C2)COC(=O)[C@]3(O)CC` + C#Cc1c(F)ccc2cc(O)cc(-c3ncc4c(N5CC6CCC(C5)N6)nc(OCC56CCCN5CC(F)C6)nc4c3F)c12: the IC50 is 19.3 nM (curve of first compound, second compound 0.0316 µM); 13.4 nM (curve of first compound, second compound 0.1 µM); 16.4 nM (curve of first compound, second compound 0.316 µM); 17.8 nM (curve of first compound, second compound 1 µM); 22.1 nM (curve of first compound, second compound 3.16 µM); 27.2 nM (curve of first compound, second compound 10 µM). In addition, the viability, T/C is, setting by setting: (second compound 0.0316 µM, first compound 0.000949 µM) 93.9%; (second compound 0.0316 µM, first compound 0.003 µM) 82.8%; (second compound 0.0316 µM, first compound 0.00949 µM) 71.2%; (second compound 0.0316 µM, first compound 0.03 µM) 36.8%; (second compound 0.0316 µM, first compound 0.0949 µM) 16.7%; (second compound 0.0316 µM, first compound 0.3 µM) 7.74%. The viability, T/C by setting is: (second compound 0.1 µM, first compound 0.000949 µM) 102%; (second compound 0.1 µM, first compound 0.003 µM) 96.7%; (second compound 0.1 µM, first compound 0.00949 µM) 52.9%; (second compound 0.1 µM, first compound 0.03 µM) 32.2%; (second compound 0.1 µM, first compound 0.0949 µM) 18.3%; (second compound 0.1 µM, first compound 0.3 µM) 6.56%. In addition, the viability, T/C by setting is: (second compound 0.316 µM, first compound 0.000949 µM) 112%; (second compound 0.316 µM, first compound 0.003 µM) 107%; (second compound 0.316 µM, first compound 0.00949 µM) 60.7%; (second compound 0.316 µM, first compound 0.03 µM) 35.2%; (second compound 0.316 µM, first compound 0.0949 µM) 16%; (second compound 0.316 µM, first compound 0.3 µM) 6.47%. Besides, the viability, T/C is 102% (second compound 1 µM, first compound 0.000949 µM); 94.4% (second compound 1 µM, first compound 0.003 µM); 63% (second compound 1 µM, first compound 0.00949 µM); 38.6% (second compound 1 µM, first compound 0.03 µM); 15.9% (second compound 1 µM, first compound 0.0949 µM); 7.94% (second compound 1 µM, first compound 0.3 µM). Further, the viability, T/C is 94.7% (second compound 3.16 µM, first compound 0.000949 µM); 101% (second compound 3.16 µM, first compound 0.003 µM); 69.3% (second compound 3.16 µM, first compound 0.00949 µM); 42.9% (second compound 3.16 µM, first compound 0.03 µM); 19.1% (second compound 3.16 µM, first compound 0.0949 µM); 9.06% (second compound 3.16 µM, first compound 0.3 µM). The viability, T/C was 127% (second compound 10 µM, first compound 0.000949 µM); 90.6% (second compound 10 µM, first compound 0.003 µM); 77.9% (second compound 10 µM, first compound 0.00949 µM); 46.6% (second compound 10 µM, first compound 0.03 µM); 17.7% (second compound 10 µM, first compound 0.0949 µM); 6.96% (second compound 10 µM, first compound 0.3 µM).

Consider `C=CC(=O)N1CCN(c2nc(OCC3CCCN3C)nc3c(F)c(-c4nc(N)cc(C)c4C(F)(F)F)c(Cl)cc23)C(C)C1` (centres undefined), for which the viability, T/C is, setting by setting: (compound 0.1 µM) 98.5% [middle of 12 runs]; (compound 1 µM) 102% [middle of 12 runs]. Also, the IC50 (compound alone, run of 06/10/2024) is more than 1000 nM and the concentration for half-maximal inhibition (IC50) (curve of compound) is more than 1000 nM.

One may read the IC50 as the concentration needed to halve the response being measured. Broadly, the viability, T/C is the ratio of treated to control.
